# According to patent US9782427B2, “Methods for treating cancer using TOR kinase inhibitor combination therapy” (Signal Pharmaceuticals, LLC, priority 2013, dated 2017):
# Key:
# [1] = system: seventeen breast cancer cell line panel; experiment: Anti-proliferation assay (ATPLite), breast cancer cell line panel; assay type: cell-based; settings: cell lines where inhibition levels greater than fifty percent were reached; 72 h; read-out: median GI50
# Experimental: Cells were thawed from a liquid nitrogen preserved state. Once cells expanded and divided at their expected doubling times, screening began.
# Cells were equilibrated in assay plates via centrifugation and placed in incubators attached to the Dosing Modules at 37° C. for twenty-four hours before treatment. […] These T zero (T0) plates were read using ultra-sensitive luminescence on Envision Plate Readers. Treated assay plates were incubated with compound (single compound or combination) for seventy-two hours. After seventy-two hours, plates were developed for endpoint analysis using ATPLite. All data points were collected via automated processes; quality controlled; and analyzed. Assay plates were accepted if they passed the following quality control standards: relative luciferase values were consistent throughout the entire experiment, Z-factor scores were greater than 0.6, untreated/vehicle controls behaved consistently on the plate. The calculation for synergy score is provided below.
# Growth Inhibition (GI) was used as a measure of cell viability. The cell viability of vehicle was measured at the time of dosing (T0) and after seventy-two hours (T72). A GI reading of 0% represents no growth inhibition—cells treated with compound and T72 vehicle signals are matched. […] GI was calculated by applying the following test and equation: If T<V0:100*[1−(T−V0)/V0] […]
# [2] = system: HepG2 cells; experiment: Anchorage independent growth (colony formation) assay; assay type: cell-based, Human; settings: single agent; for colony formation: 8 days
# Experimental: (§1) The effect of Compound 1 on anchorage-independent growth (AIG) was assessed by colony formation assay in 2 Human Hepatocellular Carcinoma (“HHC”) cell lines, HepG2 and SK-Hep-1.
# (§2) Cell Lines/Cells. Human cell lines HepG2 and SK-Hep-1 cells were obtained from American Type Culture Collection (ATCC; Manassas, Va.). Cells were cultured in DMEM (Dulbecco's Modified Eagle's Medium) (Mediatech; Mannasas, Va.) with 10% Premium FBS (Lonza, Walkersville, Md.).
# (§3) (1) Single Agent Colony Formation Assay. Nobel Agar (1.2 grams; BD; Franklin Lakes, N.J.) was placed in a 100-mL sterile bottle. Sterile water (100 mL) was added and microwaved until the agar boiled. Equal volumes of agar and 2×RPMI medium (ECE Scientific; Doylestown, Pa.) were mixed and 300 μL were transferred to each well in a 24-well flat bottom plate (BD; Franklin Lakes, N.J.). Plates were kept at 4° C. until the agar solidified. Cultures of HepG2 and SK-Hep-1 cells were harvested and resuspended in culture medium at 3.6×10^3 cells/mL. Equal volumes of agar, 2×RPMI, and cell suspension (1:1:1) were mixed in a sterile tube and 500 μL/well were immediately transferred into the 24-well plates. Plates were kept at 4° C. until the agar solidified. Culture medium (500 μL) containing compound or DMSO was added to each well (final DMSO concentration for each treatment was 0.2%). Compound 1 was tested at final concentrations of 0.1, 0.3, 1, 3, 10 and 30 μM. 5-AZA was tested at final concentrations of 1, 3 and 10 μM. Cell treatments were set up in triplicate. Cells were incubated for 8-10 days at 37° C. in a 5% CO2 atmosphere. Photographs (2× magnification) of each well were taken using a Nikon DXM1200 Digital Camera and Nikon ACT1 software and saved as a TIFF file. ImageQuant TL (GE Healthcare; Piscataway, N.J.) Colony Count Software was used to count colonies. (2) Combination Study Colony Formation Assay. Nobel Agar (1.2 grams; BD; Franklin Lakes, N.J.) was placed in a 100-mL sterile bottle. Sterile water (100 mL) was added and microwaved until the agar boiled. Equal volumes of agar and 2×RPMI medium (ECE Scientific; Doylestown, Pa.) were mixed and 300 μL were transferred to each well in a 24-well flat bottom plate (BD; Franklin Lakes, N.J.). Plates were kept at 4° C. until the agar solidified. Cultures of HepG2 and SK-Hep-1 cells were harvested and resuspended in culture medium at 3.6×10^3 cells/mL. Equal volumes of agar, 2×RPMI, and cell suspension (1:1:1) were mixed in a sterile tube and 500 μL/well were immediately transferred into the 24-well plates. Plates were kept at 4° C. until the agar solidified. Culture medium (500 μL) containing compound or DMSO was added to each well (final DMSO concentration for each treatment was 0.2%). Cells were treated with single treatment as follows: Compound 1 was tested at final concentrations of 0.1 and 0.3 μM. 5-AZA was tested at 3 μM. Combinations of Compound 1 at 0.1 and 0.3 μM were tested with 3 μM 5-AZA. Cell treatments were set up in triplicate. Cells were incubated for 8-10 days at 37° C. in a 5% CO2 atmosphere. Photographs (2× magnification) of each well were taken using a Nikon DXM1200 Digital Camera and Nikon ACT1 software and saved as a TIFF file. ImageQuant TL (GE Healthcare; Piscataway, N.J.) Colony Count Software was used to count colonies.
# (§4) Significance versus the DMSO control was calculated using One Way ANOVA and Dunnett's Post test or unpaired t tests using GraphPad Prism v5.01. To evaluate the combinatory effect, data from the three independent experiments were analyzed by comparing the combinatory response against the theoretical additive response of the two agents.
# [3] = system: SK-Hep-1 cells; experiment: as above; assay type: cell-based, Human; settings: single agent
# Experimental: as §1, §2, §3, §4
# [4] = system: subjects with higher-risk MDS; settings: Phase III study, administered subcutaneously; cited from earlier work
# [5] = system: Caov-3; experiment: Cell viability (CellTiter-Glo) and combination index, ovarian cell line; assay type: cell-based; settings: combination with VIDAZA, 3 days, CalcuSyn, Chou-Talalay
# Experimental: (§5) Cell viability was assessed using the Cell Titer-Glo® Luminescent Cell Viability Assay, Catalog Number G7570 (Promega Corporation, Madison, Wis.). The assay is a homogenous method of determining the number of viable cells in culture based on quantitation of the adenosine triphosphate (ATP) present, an indicator of metabolically active cells. The homogenous assay procedure involves adding the single reagent (CellTiter-Glo Reagent) directly to cells cultured in serum-supplemented medium. Cells were plated into a 96-well flat bottom plate (Costar Catalog Number 33595) at densities that were previously optimized for each cell line. The cells were incubated overnight in 5% CO2 at 37° C. The following day, compound dilutions were prepared and all concentrations were assayed in triplicate. The cells were incubated with a TOR kinase inhibitor or a TOR kinase inhibitor and a second active agent, in 5% CO2 at 37° C. for 3 days. After a 3-day incubation period, 100 μL, of CellTiter-Glo reagent was added to each well for 2 min with shaking and further incubated for 10 min (no shaking) at room temperature to stabilize the signal. The luminescence was measured on the VICTOR X2 multilabel plate reader. The percent growth inhibition was calculated using the DMSO control in the same plate (no compound) response as 100% cell growth. For single compound treatments (TORKi and second active agents separately), the average values from triplicates were plotted to obtain IC50 values using software XLfit from IDBS. The formula used for determining IC50 in XLfit was model number 205, which utilizes a 4 Parameter Logistic Model or Sigmoidal Dose-Response Model to calculate the IC50 values.
# (§6) The cell viability assay was first performed with the TOR kinase inhibitor and the individual second active agents, to determine the dose range for subsequent combination studies. […] The TOR kinase inhibitor and the second active agent were each added to one well containing a final concentration of 0.2% DMSO (in triplicate). In the same plate in triplicate, the cells were treated with the TOR kinase inhibitor and each second active agent either simultaneously or sequentially (containing 0.2% DMSO). The number of cells affected by compound treatment was normalized to the DMSO control (100% viability) and the data was imported into the CalcuSyn software (V2.1, Biosoft). Synergism was quantitated by the combination index (CI) using CalcuSyn according to Chou-Talalay's CI method with mathematical modeling and simulations. […] ED50 is the median effect dose at which a 50% growth inhibition is achieved.
# [6] = system: Ovcar-3; experiment: as above; assay type: cell-based; settings: combination with VIDAZA, 3 days, CalcuSyn, Chou-Talalay
# Experimental: as §5, §6
# [7] = system: Ovcar-4; experiment: as above; assay type: cell-based; settings: combination with VIDAZA, 3 days, CalcuSyn, Chou-Talalay
# Experimental: as §5, §6
# [8] = system: Ovcar-5; experiment: as above; assay type: cell-based; settings: combination with VIDAZA, 3 days, CalcuSyn, Chou-Talalay
# Experimental: as §5, §6
# [9] = system: Ovcar-8; experiment: as above; assay type: cell-based; settings: combination with VIDAZA, 3 days, CalcuSyn, Chou-Talalay
# Experimental: as §5, §6
# [10] = concentrations of 0.1 to 100 μM
structure (smiles),measurement,setting,value
"CCN1C(=O)CNc2ncc(-c3ccc(-c4nc[nH]n4)nc3C)nc21 [Compound 2, 1-ethyl-7-(2-methyl-6-(1H-1,2,4-triazol-3-yl)pyridin-3-yl)-3,4-dihydropyrazino[2,3-b]pyrazin-2(1H)-one]",GI50,[1],140 nM
"Nc1ncn([C@@H]2O[C@H](CO)[C@@H](O)[C@H]2O)c(=O)n1 [Compound 5-AZA, 4-amino-1-β-D-ribofuranosyl-1,3,5-triazin-2(1H)-one, reference compound]",colony formation,"[2]; at 1, 3 and 10 μM",43-76 % of control
same,colony formation,"[3]; 10 μM, 8 days",38 % of control
same,survival and time to AML transformation or death,[4],significantly prolonged survival and time to AML transformation or death
"CO[C@H]1CC[C@H](N2C(=O)CNc3ncc(-c4ccc(C(C)(C)O)nc4)nc32)CC1 [Compound 1, 7-(6-(2-hydroxypropan-2-yl)pyridin-3-yl)-1-((1r,4r)-4-methoxycyclohexyl)-3,4-dihydropyrazino-[2,3-b]pyrazin-2(1H)-one]",Combination index (CI) at the ED50,[5],1.08
same,Combination index (CI) at the ED50,[6],1.23
same,Combination index (CI) at the ED50,[7],0.99
same,Combination index (CI) at the ED50,[8],0.92
same,Combination index (CI) at the ED50,[9],0.99
same,colony formation,[2]; 0.1 μM,74 % of control
same,colony formation,[2]; 0.3 μM,57 % of control
same,colony formation,[2]; 1 μM,33 % of control
same,colony formation,[2]; 3 μM,24 % of control
same,colony formation,[2]; 10 μM,16 % of control
same,colony formation,[2]; 30 μM,11 % of control
same,anti-colony forming activity,[2]; [10],dose-dependent and significant anti-colony forming activity
same,inhibition of colony formation,[3]; 3 μM and higher,100%
same,colony formation,"[3]; 0.3-30 μM, 8-10 days",0-45 % of control
same,anti-colony forming activity,[3]; [10],dose-dependent and significant anti-colony forming activity
"Cc1nc(-c2nnc[nH]2)ccc1-c1cnc2c(n1)N(CCC1CCOCC1)C(=O)CN2 [Compound 3, 7-(2-methyl-6-(4H-1,2,4-triazol-3-yl)pyridin-3-yl)-1-(2-(tetrahydro-2H-pyran-4-yl)ethyl)-3,4-dihydropyrazino[2,3-b]pyrazin-2(1H)-one]",Combination index (CI) at the ED50,[5],0.92
same,Combination index (CI) at the ED50,[6],0.55
same,Combination index (CI) at the ED50,[7],0.61
same,Combination index (CI) at the ED50,[8],0.76
same,Combination index (CI) at the ED50,[9],0.81
